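The compound was tested at five concentrations on cells cultured in 96-well plates, with a 48-hour exposure period. GI50 = concentration required for 50% inhibition of growth.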 Active and inactive are the calls of the source. Rule as the data show it: active = GI50 up to about 1.1 µM and inactive = higher.
What was measured:
Assay in all cases: NCI-60 cell line screen, 48 h
A498 = test system: A498
CCRF-CEM = test system: CCRF-CEM
COLO 205 = test system: COLO 205
HCC 2998 = test system: HCC 2998
HT-29 = test system: HT-29
Hs-578T = test system: Hs-578T
K562 = test system: K562
M14 = test system: M14
MOLT-4 = test system: MOLT-4
Malme-3M = test system: Malme-3M
NCI-H460 = test system: NCI-H460
OVCAR-8 = test system: OVCAR-8
PC-3 = test system: PC-3
SF-295 = test system: SF-295
SK-MEL-2 = test system: SK-MEL-2
SK-OV-3 = test system: SK-OV-3
SN12C = test system: SN12C
SW-620 = test system: SW-620
UACC-62 = test system: UACC-62
NCI-H226 = test system: NCI-H226

| SMILES | GI50 (A498) | GI50 (CCRF-CEM) | GI50 (COLO 205) | GI50 (HCC 2998) | GI50 (HT-29) | GI50 (Hs-578T) | GI50 (K562) | GI50 (M14) | GI50 (MOLT-4) | GI50 (Malme-3M) | GI50 (NCI-H460) | GI50 (OVCAR-8) | GI50 (PC-3) | GI50 (SF-295) | GI50 (SK-MEL-2) | GI50 (SK-OV-3) | GI50 (SN12C) | GI50 (SW-620) | GI50 (UACC-62) | GI50 (NCI-H226) |
| --- | --- | --- | --- | --- | --- | --- | --- | --- | --- | --- | --- | --- | --- | --- | --- | --- | --- | --- | --- | --- |
| O=C1Nc2cccc(Cl)c2/C1=C\c1c(Cl)nc2n1CCS2 | > 100 µM (inactive) | > 100 µM (inactive) | > 100 µM (inactive) | > 100 µM (inactive) | > 100 µM (inactive) | > 100 µM (inactive) | > 100 µM (inactive) | > 100 µM (inactive) | > 100 µM (inactive) | > 100 µM (inactive) | > 100 µM (inactive) | > 100 µM (inactive) | > 100 µM (inactive) | > 100 µM (inactive) | > 100 µM (inactive) | > 100 µM (inactive) | > 100 µM (inactive) | > 100 µM (inactive) | 73.5 µM (inactive) |  |
| C[C@@]12CCC3C1C=C1C(=O)c4cc(O)ccc4C(=O)[C@]1(O2)[C@@]3(C)C=O | 1.48 µM (inactive) | 0.977 µM (active) | 9.31 µM (inactive) | 2.97 µM (inactive) | 4.67 µM (inactive) | 16.2 µM (inactive) | 2.3 µM (inactive) | 8.34 µM (inactive) | 2.3 µM (inactive) |  | 2.85 µM (inactive) | 6.01 µM (inactive) | 7.8 µM (inactive) | 11.5 µM (inactive) | 8.91 µM (inactive) | 10.2 µM (inactive) | 2.02 µM (inactive) | 3.9 µM (inactive) | 7.43 µM (inactive) | 12.6 µM (inactive) |
| CCc1cccc(CC)c1Nc1nc(-c2ccccc2-c2ccccc2)cs1 | > 100 µM (inactive) | > 100 µM (inactive) | 66.5 µM (inactive) | > 100 µM (inactive) |  | 70.6 µM (inactive) | 51.5 µM (inactive) | 92.9 µM (inactive) | 75.2 µM (inactive) | > 100 µM (inactive) | 65.3 µM (inactive) |  | 53.2 µM (inactive) | > 100 µM (inactive) | > 100 µM (inactive) | > 100 µM (inactive) | > 100 µM (inactive) | > 100 µM (inactive) | 86.5 µM (inactive) |  |
| CC(=O)Nc1ccc(C2SCc3nc4ccccc4n32)cc1 (stereo not given) | 4.91 µM (inactive) | > 100 µM (inactive) | > 100 µM (inactive) | > 100 µM (inactive) | > 100 µM (inactive) | 41.9 µM (inactive) | 66.8 µM (inactive) | > 100 µM (inactive) | > 100 µM (inactive) | 34.7 µM (inactive) | > 100 µM (inactive) | 37.7 µM (inactive) | 87.7 µM (inactive) | 87.9 µM (inactive) | > 100 µM (inactive) | > 100 µM (inactive) | > 100 µM (inactive) | > 100 µM (inactive) | > 100 µM (inactive) |  |
| CC[C@H]1C=CCC[C@@]2(C[C@@H]3CC[C@H]4[C@@H](C(=O)OCCCCCCCCCCCCCCCC(=O)N(CCCN)C[C@@H](O)CCN)[C@@]5(CCC[C@@H](C)O5)NC(=[N+]34)N2)O1 | 3.01 µM (inactive) |  | 1.83 µM (inactive) | 1.73 µM (inactive) | 1.61 µM (inactive) | 1.83 µM (inactive) | 1.48 µM (inactive) | 1.91 µM (inactive) | 1.23 µM (inactive) | 1.67 µM (inactive) | 1.74 µM (inactive) | 2.36 µM (inactive) | 1.62 µM (inactive) | 1.9 µM (inactive) | 1.7 µM (inactive) | 1.8 µM (inactive) | 2.96 µM (inactive) | 2.12 µM (inactive) | 1.78 µM (inactive) | 1.6 µM (inactive) |
| CC1OC(OC2C(O)COC(OC3C(C)OC(OC4C(OC(=O)[C@]56CCC(C)(C)C[C@@H]5C5=CCC7[C@@]8(C)C[C@H](O)[C@H](OC9OC(CO)C(O)C(OC%10OC(CO)C(O)C(O)C%10O)C9O)[C@@](C)(CO)[C@@H]8CC[C@@]7(C)[C@]5(C)CC6)OCC(O)C4O)C(O)C3OC3OCC(O)(CO)C3O)C2O)C(O)C(O)C1O (stereo not given in full) | 9.62 µM (inactive) | 6.14 µM (inactive) | 6.31 µM (inactive) | 8.09 µM (inactive) |  | 11.3 µM (inactive) | 22.7 µM (inactive) | 6.15 µM (inactive) | 9.77 µM (inactive) | 5 µM (inactive) | 12.7 µM (inactive) | 9.84 µM (inactive) | 6 µM (inactive) | 9.66 µM (inactive) |  | 9.29 µM (inactive) | 3.66 µM (inactive) | 6.43 µM (inactive) | 12.9 µM (inactive) | 12.3 µM (inactive) |
| O=[Se](O)O | 19 µM (inactive) |  | > 30.7 µM (inactive) | > 20.3 µM (inactive) | 3.17 µM (inactive) | 0.67 µM (active) | > 28.2 µM (inactive) | 3.44 µM (inactive) | > 20.1 µM (inactive) | 31.7 µM (inactive) | 0.762 µM (active) | 2.88 µM (inactive) | 1.1 µM (active) | 0.536 µM (active) | 2.6 µM (inactive) | 0.984 µM (active) | 1.24 µM (inactive) | 12.9 µM (inactive) | 1.32 µM (inactive) | 0.828 µM (active) |

From ChEMBL document CHEMBL1201862, “PubChem BioAssay data set” (2004)
